Where a SMILES comes first, the peptide text is derived from it. Where no end group is shown, it is not given here. [ ]: non-standard residue; d: D form. Hyp = O=C(O)[C@@H]1C[C@@H](O)CN1

For test [1], the target named is T1, PXL2LRR (extracellular LRR domain protein of PXL2) (Arabidopsis thaliana, UniProt Q9M0G7).
T1 construct: The LRR domain of PXL2 (residues 1-633, PXL2LRR) from Arabidopsis with an engineered; 6xHis (C); made in house; host or cells: High Five insect cells (baculovirus, pFastBac 1)
T1 sequence (Q9M0G7 24-633): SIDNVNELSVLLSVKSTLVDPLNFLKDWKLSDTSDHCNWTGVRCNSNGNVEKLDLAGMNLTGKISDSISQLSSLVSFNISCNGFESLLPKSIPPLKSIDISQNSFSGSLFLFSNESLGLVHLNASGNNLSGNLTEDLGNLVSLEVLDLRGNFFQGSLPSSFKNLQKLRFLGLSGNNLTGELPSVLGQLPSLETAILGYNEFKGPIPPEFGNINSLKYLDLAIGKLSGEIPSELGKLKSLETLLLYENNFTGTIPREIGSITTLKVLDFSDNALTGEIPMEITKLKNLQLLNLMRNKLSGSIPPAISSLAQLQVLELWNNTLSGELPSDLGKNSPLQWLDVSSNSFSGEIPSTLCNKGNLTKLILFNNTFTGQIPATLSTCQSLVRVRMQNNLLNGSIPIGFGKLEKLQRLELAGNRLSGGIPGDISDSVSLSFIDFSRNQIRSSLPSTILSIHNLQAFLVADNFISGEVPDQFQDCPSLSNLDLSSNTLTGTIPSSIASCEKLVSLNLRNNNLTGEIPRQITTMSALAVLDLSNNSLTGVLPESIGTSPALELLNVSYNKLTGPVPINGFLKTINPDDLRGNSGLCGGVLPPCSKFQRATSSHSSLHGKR
As to the kind of experiment: biochemical. The class given is binding.
Procedure: (C) Measurement of the binding affinity between PXL2^LRR and CLE42 by ITC. Top panel: twenty injections of CLE42 solution were titrated into PXL2^LRR in the ITC cell. The area of each injection peak corresponds to the total heat released for that injection. Bottom panel: the binding isotherm for PXL2^LRR-CLE42 interaction. The integrated heat is plotted against the molar ratio between CLE42 and PXL2^LRR. […] The assay was performed as described in (C).

Test [2] addresses extracellular LRR domain protein of PXL2 (PXL2^LRR) (Arabidopsis thaliana). As to the kind of experiment: ITC; twenty injections of peptide solution titrated into PXL2^LRR in the ITC cell.

The term Kd denotes the constant that tells how readily two partners part at equilibrium. For the molecule `CC[C@H](C)[C@H](NC(=O)[C@@H]1CCCN1C(=O)[C@H](CC(N)=O)NC(=O)[C@@H]1C[C@@H](O)CN1C(=O)CNC(=O)[C@H](CO)NC(=O)[C@@H]1C[C@@H](O)CN1C(=O)[C@@H](NC(=O)CNC(=O)[C@@H](N)Cc1c[nH]cn1)C(C)C)C(=O)N[C@@H](CO)C(=O)N[C@@H](CC(N)=O)C(=O)O` [CLE42, His-Gly-Val-Hyp-Ser-Gly-Hyp-Asn-Pro-Ile-Ser-Asn] (H-HGV[Hyp]SG[Hyp]NPISN-OH), in test [1], binding was characterised by a dissociation constant (Kd) of 2.75 µM.

With `CC[C@H](C)[C@H](NC(=O)[C@@H]1CCCN1C(=O)[C@H](CC(N)=O)NC(=O)[C@@H]1C[C@@H](O)CN1C(=O)CNC(=O)[C@H](CO)NC(=O)[C@@H]1C[C@@H](O)CN1C(=O)[C@@H](NC(=O)[C@H](CCC(=O)O)NC(=O)[C@@H](N)Cc1c[nH]cn1)C(C)C)C(=O)N[C@@H](CO)C(=O)N[C@@H](CC(N)=O)C(=O)O` [CLE41, His-Glu-Val-Hyp-Ser-Gly-Hyp-Asn-Pro-Ile-Ser-Asn] (H-HEV[Hyp]SG[Hyp]NPISN-OH), the dissociation constant (Kd) in test [1] is 10 µM.

As for “RLV[Hyp]SG[Hyp]NPLHH [CLE13, negative control]”, the “interaction with PXL2LRR by ITC” value in test [1] (ITC200, 25 °C, 10 mM Bis-Tris pH 6.0, 100 mM NaCl, approximately 0.5 mM peptide, 0.05 mM PXL2LRR, repeated at least three times, negative control) is recorded as “no detectable interaction”.

B1: CLE41/44 or TDIF (tracheary elements differentiation inhibitory factor) (peptide)
peptide: HEV[Hyp]SG[Hyp]NPISN
In the case of B1, in test [2], the dissociation constant (Kd) stood at 10 µM. In other words, the double-digit micromolar range.

B2: CLE42 (peptide)
peptide: HGV[Hyp]SG[Hyp]NPISN
Molecule B2 gave a dissociation constant Kd in test [2] of 2.75 µM.

Values taken from publication PMC5546936, “CLE42 binding induces PXL2 interaction with SERK2” (Protein & Cell, 2017).
